The compounds below were run against TrkA (Homo sapiens (Human), UniProt P04629) (assay: TrkA Omnia Assay). Conditions: averaged IC50; 20 nM enzyme, 500 μM ATP, 10 μM peptide substrate.
Type: biochemical
How it was run: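 Recombinant TrkA (20 nM) preincubated 10 min at ambient temperature with compound, then Omnia Tyr Peptide #4 (10 μM) and ATP (500 μM) added in 25 mM MOPS pH 7.5, 5 mM MgCl2, 0.005% Triton X-100. Fluorescence (ex 360/em 485 nm) followed continuously for 70 min; IC50 from initial rates by 4- or 5-parameter logistic fit.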

Sequence of TrkA (P04629 33-796): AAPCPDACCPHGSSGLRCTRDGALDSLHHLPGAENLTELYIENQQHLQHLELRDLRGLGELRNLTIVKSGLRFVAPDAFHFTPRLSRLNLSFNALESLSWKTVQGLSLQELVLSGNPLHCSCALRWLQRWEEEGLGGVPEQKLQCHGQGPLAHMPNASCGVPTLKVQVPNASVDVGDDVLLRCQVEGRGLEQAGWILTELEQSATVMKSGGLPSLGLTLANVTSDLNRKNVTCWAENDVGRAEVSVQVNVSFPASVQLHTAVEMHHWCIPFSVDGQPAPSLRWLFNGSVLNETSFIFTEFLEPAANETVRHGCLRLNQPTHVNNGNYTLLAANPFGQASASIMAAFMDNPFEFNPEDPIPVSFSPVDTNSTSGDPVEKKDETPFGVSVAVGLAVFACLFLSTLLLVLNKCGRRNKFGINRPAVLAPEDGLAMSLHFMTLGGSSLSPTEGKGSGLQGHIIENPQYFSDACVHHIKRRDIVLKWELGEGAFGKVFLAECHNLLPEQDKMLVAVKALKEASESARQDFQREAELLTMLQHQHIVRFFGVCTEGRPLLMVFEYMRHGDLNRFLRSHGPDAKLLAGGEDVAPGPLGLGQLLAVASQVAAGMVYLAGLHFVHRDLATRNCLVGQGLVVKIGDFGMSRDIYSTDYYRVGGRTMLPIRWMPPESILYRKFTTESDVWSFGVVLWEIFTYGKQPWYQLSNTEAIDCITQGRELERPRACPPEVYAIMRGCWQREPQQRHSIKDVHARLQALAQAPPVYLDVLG

IC50 [nM] | Structure (SMILES)
100 to 1000 | COCCN1C[C@@H](NC(=O)Nc2c(C)c(-c3cnn(C)c3)nn2-c2cncc(Cl)c2)[C@H](c2ccc(F)c(F)c2)C1 [Example 497, 1-(1-(5-chloropyridin-3-yl)-1′,4-dimethyl-1H, 1′H-[3,4′-bipyrazol]-5-yl)-3-((3 S,4R)-4-(3,4-difluorophenyl)-1-(2-methoxyethyl)pyrrolidin-3-yl)urea]
< 100 | COCCN1C[C@@H](NC(=O)Nc2c(C)c(-c3cnn(CC(F)(F)F)c3)nn2-c2ccccc2)[C@H](c2ccc(F)c(F)c2)C1 [Example 499, 1-((3S,4R)-4-(3,4-difluorophenyl)-1-(2-methoxyethyl)pyrrolidin-3-yl)-3-(4-methyl-1-phenyl-1′-(2,2,2-trifluoroethyl)-1H, 1′H-[3,4′-bipyrazol]-5-yl)urea]
< 100 | COCCN1C[C@@H](NC(=O)Nc2c(C)c(-c3cnn(S(C)(=O)=O)c3)nn2-c2ccccc2)[C@H](c2ccc(F)c(F)c2)C1 [Example 502, 1-((3S,4R)-4-(3,4-difluorophenyl)-1-(2-methoxyethyl)pyrrolidin-3-yl)-3-(4-methyl-1′-(methylsulfonyl)-1-phenyl-1H, 1′H-[3,4′-bipyrazol]-5-yl)urea]
< 100 | COCCN1C[C@@H](NC(=O)Nc2c(C)c(-c3ccc(=O)n(C)c3)nn2-c2ccccc2)[C@H](c2ccc(F)c(F)c2)C1 [Example 506, 1-((3S,4R)-4-(3,4-difluorophenyl)-1-(2-methoxyethyl)pyrrolidin-3-yl)-3-(4-methyl-3-(1-methyl-6-oxo-1,6-dihydropyridin-3-yl)-1-phenyl-1H-pyrazol-5-yl)urea]
< 100 | COCCN1C[C@@H](NC(=O)Nc2c(C)c(-c3cnc(C)s3)nn2-c2ccccc2)[C@H](c2ccc(F)c(F)c2)C1 [Example 510, 1-((3S,4R)-4-(3,4-difluorophenyl)-1-(2-methoxyethyl)pyrrolidin-3-yl)-3-(4-methyl-3-(2-methylthiazol-5-yl)-1-phenyl-1H-pyrazol-5-yl)urea]
< 100 | COCCN1C[C@@H](NC(=O)Nc2c(C)c(-c3cnc(N)nc3)nn2-c2ccccc2)[C@H](c2ccc(F)c(F)c2)C1 [Example 512, 1-(3-(2-aminopyrimidin-5-yl)-4-methyl-1-phenyl-1H-pyrazol-5-yl)-3-((3S,4R)-4-(3,4-difluorophenyl)-1-(2-methoxyethyl)pyrrolidin-3-yl)urea]

The next lines start with the compound.

Structure (SMILES) | IC50 [nM]
COCCN1C[C@@H](NC(=O)Nc2c(C)c(-c3cnn(C)c3)nn2-c2cncc(C)c2)[C@H](c2ccc(F)c(F)c2)C1 [Example 496, 1-((3S,4R)-4-(3,4-difluorophenyvl)-1-(2-methoxyethyl)pyrrolidin-3-yl)-3-(1′,4-dimethyl-1-(5-methylpyridin-3-yl)-1H, 1′H-[3,4′-bipyrazol]-5-yl)urea] | 100 to 1000
COCCN1C[C@@H](NC(=O)Nc2c(C)c(-c3cnn(C(OCC(F)(F)F)C(F)(F)F)c3)nn2-c2ccccc2)[C@H](c2ccc(F)c(F)c2)C1 (stereo partly drawn) [Example 498, 1-((3S,4R)-4-(3,4-difluorophenyvl)-1-(2-methoxyethyl)pyrrolidin-3-yl)-3-(4-methyl-1-phenyl-1′-(2,2,2-trifluoro-1-(2,2,2-trifluoroethoxy)ethyl)-1H,1′H-[3,4′-bipyrazol]-5-yl)urea] | < 100
COCCN1C[C@@H](NC(=O)Nc2c(C)c(-c3cnn(CC4CC4)c3)nn2-c2ccccc2)[C@H](c2ccc(F)c(F)c2)C1 [Example 500, 1-(1′-(cyclopropylmethyl)-4-methyl-l-phenyl-1H, 1′H-[3,4′-bipyrazol]-5-yl)-3-((3S,4R)-4-(3,4-difluorophenyl)-1-(2-methoxyethyl)pyrrolidin-3-yl)urea] | < 100
COCCN1C[C@@H](NC(=O)Nc2c(C)c(-c3cnn(C(=O)C4CC4)c3)nn2-c2ccccc2)[C@H](c2ccc(F)c(F)c2)C1 [Example 501, 1-(1′-(cyclopropanecarbonyl)-4-methyl-1-phenyl-1H,1′H-[3,4′-bipyrazol]-5-yl)-3-((3S,4R)-4-(3,4-difluorophenyl)-1-(2-methoxyethyl)pyrrolidin-3-yl)urea] | < 100
COCCN1C[C@@H](NC(=O)Nc2c(C)c(-c3cnn(C(C)C)c3)nn2-c2ccccc2)[C@H](c2ccc(F)c(F)c2)C1 [Example 503, 1-((3S,4R)-4-(3,4-difluorophenyvl)-1-(2-methoxyethyl)pyrrolidin-3-yl)-3-(1′-isopropyl-4-methyl-1-phenyl-1H, 1′H-[3,4′-bipyrazol]-5-yl)urea] | < 100
COCCN1C[C@@H](NC(=O)Nc2c(C)c(-c3cncnc3)nn2-c2ccccc2)[C@H](c2ccc(F)c(F)c2)C1 [Example 504, 1-((3S,4R)-4-(3,4-difluorophenyl)-1-(2-methoxyethyl)pyrrolidin-3-yl)-3-(4-methyl-1-phenyl-3-(pyrimidin-5-yl)-1H-pyrazol-5-yl)urea] | < 100
COCCN1C[C@@H](NC(=O)Nc2c(C)c(-c3ccn(C)c(=O)c3)nn2-c2ccccc2)[C@H](c2ccc(F)c(F)c2)C1 [Example 505, 1-((3S,4R)-4-(3,4-difluorophenyl)-1-(2-methoxyethyl)pyrrolidin-3-yl)-3-(4-methyl-3-(1-methyl-2-oxo-1,2-dihydropyridin-4-yl)-1-phenyl-1H-pyrazol-5-yl)urea] | < 100
COCCN1C[C@@H](NC(=O)Nc2c(C)c(-c3cnn(C)c3C)nn2-c2ccccc2)[C@H](c2ccc(F)c(F)c2)C1 [Example 507, 1-((3S,4R)-4-(3,4-difluorophenyl)-1-(2-methoxyethyl)pyrrolidin-3-yl)-3-(1′,4,5′-trimethyl-1-phenyl-1H,1′H-[3,4′-bipyrazol]-5-yl)urea] | < 100
COCCN1C[C@@H](NC(=O)Nc2c(C)c(-c3cn(C)nc3C)nn2-c2ccccc2)[C@H](c2ccc(F)c(F)c2)C1 [Example 508, 1-((3S,4R)-4-(3,4-difluorophenyl)-1-(2-methoxyethyl)pyrrolidin-3-yl)-3-(1′,3′,4-trimethyl-1-phenyl-1H,1′H-[3,4′-bipyrazol]-5-yl)urea] | < 100
COCCN1C[C@@H](NC(=O)Nc2c(C)c(-c3cnn(C4CC4)c3)nn2-c2ccccc2)[C@H](c2ccc(F)c(F)c2)C1 [Example 509, 1-(1′-cyclopropyl-4-methyl-1-phenyl-1H,1′H-[3,4′-bipyrazol]-5-yl)-3-((3S,4R)-4-(3,4-difluorophenyl)-1-(2-methoxyethyl)pyrrolidin-3-yl)urea] | < 100
COCCN1C[C@@H](NC(=O)Nc2c(C)c(-c3cnc(C)nc3)nn2-c2ccccc2)[C@H](c2ccc(F)c(F)c2)C1 [Example 511, 1-((3S,4R)-4-(3,4-difluorophenyl)-1-(2-methoxyethyl)pyrrolidin-3-yl)-3-(4-methyl-3-(2-methylpyrimidin-5-yl)-1-phenyl-1H-pyrazol-5-yl)urea] | < 100
COCCN1C[C@@H](NC(=O)Nc2c(C)c(-c3sc(C)nc3C)nn2-c2ccccc2)[C@H](c2ccc(F)c(F)c2)C1 [Example 513, 1-((3S,4R)-4-(3,4-difluorophenyl)-1-(2-methoxyethyl)pyrrolidin-3-yl)-3-(3-(2,4-dimethylthiazol-5-yl)-4-methyl-1-phenyl-1H-pyrazol-5-yl)urea] | < 100
COCCN1C[C@@H](NC(=O)Nc2c(C)c(-c3cc(C)nc(C)c3)nn2-c2ccccc2)[C@H](c2ccc(F)c(F)c2)C1 [Example 514, 1-((3S,4R)-4-(3,4-difluorophenyl)-1-(2-methoxyethyl)pyrrolidin-3-yl)-3-(3-(2,6-dimethylpyridin-4-yl)-4-methyl-1-phenyl-1H-pyrazol-5-yl)urea] | < 100

— US10323022B2, “Pyrrolidinyl urea, pyrrolidinyl thiourea and pyrrolidinyl guanidine compounds as TrkA kinase inhibitors” (Array BioPharma Inc., priority 2011, dated 2019)
